Test results from PMC6769468, “Endogenous Neuropeptide Nocistatin Is a Direct Agonist of Acid-Sensing Ion Channels (ASIC1, ASIC2 and ASIC3)” (Biomolecules, 2019).
Ends that are not written are not given here.

What was measured:
rat ASIC2a = molecular target: T1, rat ASIC2a (Rattus norvegicus, UniProt Q62962); assay: Whole-cell current activation, rat ASIC2a in X. laevis oocytes; format: cell-based
T1 construct: expressed in transfected cells; host or cells: Xenopus laevis oocytes (injected)
T1 sequence (Q62962 1-512): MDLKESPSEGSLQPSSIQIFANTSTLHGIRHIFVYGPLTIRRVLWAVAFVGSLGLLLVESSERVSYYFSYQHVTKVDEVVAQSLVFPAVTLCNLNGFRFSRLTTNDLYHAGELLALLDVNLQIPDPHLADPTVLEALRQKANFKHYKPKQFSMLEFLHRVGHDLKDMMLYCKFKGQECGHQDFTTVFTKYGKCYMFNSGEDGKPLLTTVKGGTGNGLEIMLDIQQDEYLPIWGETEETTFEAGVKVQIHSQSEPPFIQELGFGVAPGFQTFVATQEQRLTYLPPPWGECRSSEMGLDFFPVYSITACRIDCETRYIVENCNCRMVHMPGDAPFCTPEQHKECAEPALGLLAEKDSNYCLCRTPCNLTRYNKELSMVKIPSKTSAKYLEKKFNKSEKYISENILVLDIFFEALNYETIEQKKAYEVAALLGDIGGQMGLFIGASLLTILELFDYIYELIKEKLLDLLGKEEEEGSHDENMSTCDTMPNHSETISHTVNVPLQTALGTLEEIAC
Protocol: (§1) Oocytes expressed rASIC1a, rASIC1b, rASIC2a, and rASIC3 homomeric channels were prepared as described. Injected oocytes were kept for two–three days at 19 °C and then for up to seven days at 15 °C in ND-96 medium supplemented with gentamycin (50 μg·mL^−1) and containing (in mM): 96 NaCl, 2 KCl, 1.8 CaCl2, 1 MgCl2, and 10 HEPES titrated to pH 7.4 with NaOH. Electrophysiological recordings were performed using the GeneClamp500 amplifier (Axon Instruments, Inverurie, UK) at a holding potential of -50 mV. The data were filtered at 20 Hz and digitized at 100 Hz using the L780 AD converter (L-Card, Moscow, Russia). Microelectrodes were filled with 3 M KCl. The external bath solution was ND-96 with pH adjusted to 7.4/7.8 (10 mM HEPES) /8.5 (10 mM Tris). Nocistatin containing solutions were freshly prepared and buffered each experimental day in ND-96 bath solution (pH 7.4/7.8/8.5). Proton-activated currents through ASIC channels were elicited by application of ND-96, in which 10 mM of HEPES was substituted with 10 mM MES at pH 5.5/ 10 mM acetic acid at pH 4.5. The whole-cell recording was performed if a response to the control pH stimulus was stable in at least two replicates. Nocistatin-activated currents were elicited by application of nocistatin containing solutions with various concentrations of the peptide.
Extracellular solutions were applied using a computer-controlled valve system with a flow rate of 1 mL/min. The oocyte chamber volume was 80 µL. The validity of the application system for studying ASIC channels expressed in oocytes was confirmed in experiments by application of a Cl-free solution (containing (in mM): 130 NMDG, 1 MgGluc2, 2 KGluc, 5 HEPES) (pH 7.4). […]
(§2) All data are presented as mean ± SEM. The significance of normalized data differences was determined with a non-parametric Kruskal-Wallis ANOVA test with the significance level * p < 0.05 and ** p < 0.01; ns, non-significant.

homomeric ASICs = assay: Whole-cell current, homomeric ASICs in oocytes (all isoforms together); format: cell-based, rat
Protocol: as §1
(§3) Extracellular solutions were applied using a computer-controlled valve system with a flow rate of 1 mL/min. The oocyte chamber volume was 80 µL. The validity of the application system for studying ASIC channels expressed in oocytes was confirmed in experiments by application of a Cl-free solution (containing (in mM): 130 NMDG, 1 MgGluc2, 2 KGluc, 5 HEPES) (pH 7.4). Fast application of proton/peptide-activating solution was performed at a flow rate of 1 mL/sec (the change of the bath solution occurred within 100 ms), followed by PC controlled flow stopping (from 5 to 15 s).

rat ASIC1a = molecular target: T2, rat ASIC1a (Rattus norvegicus, UniProt P55926); assay: Inhibition of pH 5.5-induced ASIC1a current following rNS action; format: cell-based
T2 construct: expressed in transfected cells; host or cells: Xenopus laevis oocytes (injected)
T2 sequence (P55926 1-526): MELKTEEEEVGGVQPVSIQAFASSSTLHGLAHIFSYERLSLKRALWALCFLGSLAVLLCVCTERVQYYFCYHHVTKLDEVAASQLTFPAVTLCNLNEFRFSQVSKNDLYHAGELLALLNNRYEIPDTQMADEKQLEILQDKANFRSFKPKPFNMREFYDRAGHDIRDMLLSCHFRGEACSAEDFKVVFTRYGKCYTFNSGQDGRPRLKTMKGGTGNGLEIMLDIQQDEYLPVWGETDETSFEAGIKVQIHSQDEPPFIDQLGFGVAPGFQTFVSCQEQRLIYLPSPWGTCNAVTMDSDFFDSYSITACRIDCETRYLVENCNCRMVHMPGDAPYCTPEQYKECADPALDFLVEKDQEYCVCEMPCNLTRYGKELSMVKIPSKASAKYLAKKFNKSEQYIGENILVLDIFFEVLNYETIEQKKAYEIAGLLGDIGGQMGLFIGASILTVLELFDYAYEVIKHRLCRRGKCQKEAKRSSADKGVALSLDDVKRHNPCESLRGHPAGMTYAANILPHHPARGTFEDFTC
Protocol: as §1, §3
(c) Generalized logistic differential equation (the four-parameter logistic nonlinear regression model or a Hill function) F3(x) = ((A1 – A2)/(1 + (x/x0)^nH)) + A2, where F3(x) is the response value at a given nocistatin concentration, x is the concentration of nocistatin; A1 is the control response value (fixed at 100%) or the minimum asymptote of the response when concentration = 0; A2 is the response value at maximal inhibition or the maximum asymptote or the stabilized response for an infinite concentration (% of control), x0 is the concentration at which 50% of the channels are expected to show the response (or the response halfway between the minimum response asymptote A1 and the maximum response asymptote A2) (IC50 value) and nH is the Hill coefficient (a level of cooperativity). The maximum amplitude (Imax) was calculated for each oocyte by individual fitting; the data were normalized to it, then the normalized data were averaged and fitted by the logistic equations F1(x) and F2(x).
as §2

[1] = amplitude of pH 5.5-induced current, F3, n = 5
[2] = pH 5.5 stimulus after 0.125–0.5 mM nocistatin pretreatment, n = 5

Sequence: MPRVRSVVQARDAEPEADAEPVADEADEVEQKQLQ [rNS]
- tmax less than for acidification by (rat ASIC2a; 1 mM rNS vs acidification, faster): ~ 37%
- Maximal amplitude of peptide activation versus response to standard pH drop (rat ASIC2a; 1 mM rNS vs pH drop 7.4 to 5.5): eight times higher
- τdes (desensitization time constant) (rat ASIC2a; 1 mM rNS, conditioning pH 7.4, mean ± S.E. from 4–7 measurements): 2.22 ± 0.16 s
- Response to a pH drop after washing out the peptide (homomeric ASICs; after washout): completely restored after washing out the peptide
- Response to rapid acidification after activation by the peptide (homomeric ASICs; pH drop after 1 mM rNS): did not respond further to rapid acidification after activation by the peptide
- Effect of application at resting pH 7.4 (homomeric ASICs; resting pH 7.4, 1 mM rNS): causes rapidly activating inward currents in homomeric ASICs
- Reduction of the 1st versus the 2nd component of the current (rat ASIC1a; IC50 comparison): reduced the 1st component of the current twice as effectively
- nH of inhibition, 1st component (rat ASIC1a; [1]): 3.5 ± 0.4
- nH of inhibition, 2nd component (rat ASIC1a; [1]): 1.9 ± 0.2
- nH, integral current inhibition (rat ASIC1a; integral of pH 5.5-induced current after nocistatin, F3): 2.9 ± 0.4
- IC50 (rat ASIC1a; integral of pH 5.5-induced current after nocistatin, F3 (fitted much worse than amplitude)): 150 ± 20 µM
- Concentration at which nocistatin acts as an inhibitor (rat ASIC1a; low concentrations, Figure 2d and S2B): ≤ 0.2 mM
- tmax1, 1st component of proton-induced current (rat ASIC1a; [2]): 0.495 ± 0.085 s
- tmax2, 2nd component of proton-induced current (rat ASIC1a; [2]): 1.415 ± 0.112 s
